# pIC50: −log10 of the molar value.
# Key:
# breast cancer cell lines = experiment: Breast cancer cell line apoptosis assay, statements over several cell lines; format: cell-based, human; conditions: five breast cancer cell lines
# Method: MDA-MB-468 (panel A), MDA-MB-231 (panel B), MDA-MB-435 (panel C), MCF7 (panel D) and MDA-MB-453 (panel E) were seeded in 12-well plates, grown overnight then treated with the indicated compound for 24 hr. Cells were centrifuged and the supernatants assayed for nucleosome levels by ELISA.
# Human breast carcinoma cell lines MDA-MB-468, MDA-MB-231, MBA-MD-435 and MCF7 were kindly provided by Dr. Powel H. Brown (Breast Cancer Center, Baylor College of Medicine). Breast cancer cell line, MDA-MB-453 was kindly provided by Dr. Shou Jiang (Breast Cancer Center, Baylor College of Medicine). […] Cells were seeded at 2,500 cells/cm^2 into 12-well plates. […] At 24 hours, treatment was terminated by removing the medium from each well. […] The percent maximum nucleosome level was calculated by dividing the nucleosome level by the maximum nucleosome level achieved in the assay and multiplying by 100.
# Stat1 = target: T1, Stat1 (Homo sapiens, UniProt P42224); experiment: Immunoblot assay of IFN-γ-stimulated Stat1 phosphorylation in HepG2 cells; format: cell-based; conditions: HepG2, compound 300 μM, 1 hour, IFN-γ 30 ng/ml 30 min
# T1 construct: endogenous in cells; host or cells: HepG2
# T1 sequence (P42224 1-750): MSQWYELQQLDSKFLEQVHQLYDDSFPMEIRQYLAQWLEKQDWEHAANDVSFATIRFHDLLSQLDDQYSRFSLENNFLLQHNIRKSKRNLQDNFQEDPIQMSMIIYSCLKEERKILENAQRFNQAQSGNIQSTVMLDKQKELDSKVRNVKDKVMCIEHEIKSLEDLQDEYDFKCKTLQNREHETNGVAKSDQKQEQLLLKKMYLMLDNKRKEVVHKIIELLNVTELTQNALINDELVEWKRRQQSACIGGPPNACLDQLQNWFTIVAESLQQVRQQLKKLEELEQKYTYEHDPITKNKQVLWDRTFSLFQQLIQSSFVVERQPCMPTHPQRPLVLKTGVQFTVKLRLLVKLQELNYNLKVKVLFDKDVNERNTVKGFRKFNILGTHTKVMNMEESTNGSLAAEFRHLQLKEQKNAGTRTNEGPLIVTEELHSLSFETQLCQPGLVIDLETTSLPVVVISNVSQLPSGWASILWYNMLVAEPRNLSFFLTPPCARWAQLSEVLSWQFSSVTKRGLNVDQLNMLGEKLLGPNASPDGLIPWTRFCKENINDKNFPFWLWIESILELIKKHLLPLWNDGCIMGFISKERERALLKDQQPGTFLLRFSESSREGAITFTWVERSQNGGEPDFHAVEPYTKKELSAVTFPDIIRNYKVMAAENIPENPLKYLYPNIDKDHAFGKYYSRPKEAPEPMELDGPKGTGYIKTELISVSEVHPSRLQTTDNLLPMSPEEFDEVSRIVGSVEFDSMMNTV
# Method: HepG2 cells were pretreated with DMSO alone or DMSO containing each of the compounds at a concentration of 300 μM for 60 min. Cells were then stimulated with IFN-γ (30 ng/ml) for 30 min. Protein extracts of cells were separated by SDS-PAGE and immunoblotted serially with antibodies to pStat1, total Stat1 and β-actin. Blots were stripped between each immunoblotting. The results shown are representative of 2 or more experiments.
# Immunoblot assay. The human hepatocellular carcinoma cell line (HepG2) was grown in 6-well plates under standard conditions. Cells were pretreated with compounds (0, 1, 3, 10, 30, 100 and 300 uM) for 1 hour then stimulated under optimal conditions with either interferon gamma (IFN-γ; 30 ng/ml for 30 min) to activate Stat1 or interleukin-6 (IL-6; 30 ng/ml for 30 min) to activate Stat3 (30-31). Cultures were then harvested and proteins extracted using high-salt buffer, as described (Shao et al., 2006). Briefly, extracts were mixed with 2× sodium dodecyl sulfate (SDS) sample buffer (125 mmol/L Tris-HCL pH 6.8; 4% SDS; 20% glycerol; 10% 2-mercaptoethanol) at a 1:1 ratio and heated for 5 minutes at 100° C. Proteins (20 μg) were separated by 7.5% SDS-PAGE and transferred to polyvinylidene fluoride (PVDF) membrane (Millipore, Waltham, Mass.) and immunoblotted. Prestained molecular weight markers (Biorad, Hercules, Calif.) were included in each gel. Membranes were probed serially with antibody against Stat1 pY^701 or Stat3 pY^705 followed by antibody against Stat1 or Stat3 (Transduction labs, Lexington, Ky.) then antibody against β-actin (Abeam, Cambridge, Mass.). Membranes were stripped between antibody probing using Restore™ Western Blot Stripping Buffer (Thermo Fisher Scientific Inc., Waltham, Mass.) per the manufacturer's instructions. Horseradish peroxidase-conjugated goat-anti-mouse IgG was used as the secondary antibody (Invitrogen Carlsbad, Calif.) and the membranes were developed with enhanced chemiluminescence (ECL) detection system (Amersham Life Sciences Inc.; Arlington Heights, Ill.).
# While Stat3 contributes to oncogenesis, in part, through inhibition of apoptosis, Stat1 is anti-oncogenic; it mediates the apoptotic effects of interferons and contributes to tumor surveillance (Kaplan et al., 1998; Ramana et al., 2000). Consequently, compounds that target Stat3 while sparing Stat1, leaving its anti-oncogenic functions unopposed, may result in a synergistic anti-tumor effect. […] Thus, five of the six exemplary compounds identified were selective and inhibited ligand-stimulated phosphorylation of Stat3 but not Stat1.
# EXP IIC. Ligand-mediated pStat3 and pStat1 inhibition assays. […] Briefly, human hepatocellular carcinoma cells (HepG2) are grown in 6-well plates and pretreated with compounds (0, 0.1, 0.3, 1, 3, 10, 30, 100 μM) for 1 hour then stimulated under optimal conditions with either interleukin-6 (IL-6; 30 ng/ml for 30 min) to activate Stat3 or interferon gamma (IFN-γ, 30 ng/ml for 30 min) to activate Stat1. Cells are harvested and proteins extracted using high-salt buffer, mixed with 2× sodium dodecyl sulfate (SDS) sample buffer (125 mmol/L Tris-HCL pH 6.8; 4% SDS; 20% glycerol; 10% 2-mercaptoethanol) at a 1:1 ratio then heated for 5 minutes at 100° C. Proteins (20 μg) are separated by 7.5% SDS-PAGE and transferred to polyvinylidene fluoride (PVDF) membrane (Millipore, Waltham, Mass.) and immunoblotted. Membranes are probed serially with antibody against Stat1 pY701 or Stat3 pY705 followed by antibody against Stat1 or Stat3 (Transduction labs, Lexington, Ky.) then antibody against β-actin (Abcam, Cambridge, Mass.). Membranes are stripped between antibody probings using Restore™ Western Blot Stripping Buffer (Thermo Fisher Scientific Inc., Waltham, Mass.) per the manufacturer's instructions. […]
# Stat3:hSIE complexes = target: T2, Stat3:hSIE complexes (Homo sapiens, UniProt P40763); experiment: Electrophoretic mobility shift assay (EMSA) of Stat3 DNA binding; format: biochemical; conditions: extracts of IL-6-stimulated HepG2 cells, compound 300 μM, 60 minutes at 37° C
# T2 construct: endogenous in cells; host or cells: HepG2
# Method: Electrophoretic mobility shift assays were performed using whole-cell extracts prepared from HepG2 cells without and with stimulation with IL-6 (30 ng/ml) for 30 min. Protein (20 μg) was incubated with radiolabeled duplex oligonucleotide (hSIE) and DMSO without or with the indicated compounds (300 uM) for 60 minutes at 37° C. then separated by PAGE. The gel was dried and autoradiographed; the portion of the gel corresponding to the Stat3-bound hSIE band is shown. Data shown are representative of 2 studies.
# Electrophoretic Mobility Shift Assay (EMSA): EMSA was performed using the hSIE radiolabeled duplex oligonucleotide as a probe as described (Tweardy et al., 1995). Briefly, high salt extracts were prepared from HepG2 cells incubated without or with IL-6 (30 ng/ml) for 30 minutes. Protein concentration was determined by Bradford Assay and 20 ug of extract was incubated with compound (300 uM) for 60 minutes at 37° C. […] Gels were dried and autoradiographed.
# Once in the nucleus, Stat3 dimers bind to specific DNA elements to activate and, in some instances, repress gene transcription. […] Compounds that bind to the phosphopeptide-binding site of Stat3 might be expected to do the same. […]
# [1] = tested on: triple negative human breast cancer xenograft; experiment: Two-day pilot triple-negative human breast cancer xenograft experiment, MSFE measured; format: in vivo, SCID Beige mice; conditions: 250 mcg, two days of treatment, P<0.05
# Description: The mice were sacrificed after two days and MSFE measured.
# A tumor line derived from a “triple negative” (ER-negative, PgR-negative, and HER-2 negative) human breast cancer biopsy specimen was transplanted into immunocompromised SCID Beige mice. The animals (n=3) received two doses of vehicle control, 2 different doses of Cpd 188 (125 or 250 mcg), a G-quartet oligodeoxynucleotide (GQ-ODN, T40214; GQ-I) previously determined to target Stat3 (Jing et al., 2004) and a control non-specific ODN (GQ-II) each at two doses (125 or 250 mcg). The animals were sacrificed after only two days of treatment, and MSFE determined.
# [2] = tested on: breast cancer cells with constitutively activated Stat3; conditions: Schust et al., 2006; cited from earlier work
# Stat3 = Stat3 (Homo sapiens, UniProt P40763); conditions: fluorescence polarization, Coleman et al., 2005; read-out: IC50 inhibition of Stat3 binding to pY-peptide; cited from earlier work
# Chain of Stat3 (P40763 whole entry): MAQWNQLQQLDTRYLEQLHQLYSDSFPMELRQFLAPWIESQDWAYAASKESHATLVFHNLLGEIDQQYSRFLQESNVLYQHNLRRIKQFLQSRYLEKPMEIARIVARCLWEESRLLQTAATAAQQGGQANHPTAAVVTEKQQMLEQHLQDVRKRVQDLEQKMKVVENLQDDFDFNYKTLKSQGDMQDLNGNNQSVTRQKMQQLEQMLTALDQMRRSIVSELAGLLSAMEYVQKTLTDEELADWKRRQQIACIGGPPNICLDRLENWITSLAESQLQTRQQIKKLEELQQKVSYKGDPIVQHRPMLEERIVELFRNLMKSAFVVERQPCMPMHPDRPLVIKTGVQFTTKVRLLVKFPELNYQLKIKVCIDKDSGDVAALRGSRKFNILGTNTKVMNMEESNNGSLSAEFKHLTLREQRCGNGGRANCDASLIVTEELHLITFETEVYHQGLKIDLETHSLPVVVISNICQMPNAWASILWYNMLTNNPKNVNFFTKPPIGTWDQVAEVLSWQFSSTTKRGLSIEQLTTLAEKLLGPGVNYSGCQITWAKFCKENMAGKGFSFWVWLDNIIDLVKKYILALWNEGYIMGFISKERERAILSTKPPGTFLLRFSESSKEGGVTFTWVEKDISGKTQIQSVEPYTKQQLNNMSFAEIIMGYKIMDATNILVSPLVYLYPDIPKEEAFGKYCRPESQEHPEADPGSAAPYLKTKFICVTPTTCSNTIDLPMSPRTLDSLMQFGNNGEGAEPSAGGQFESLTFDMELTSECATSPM
# T2 sequence (P40763 2-770 limits assumed, one chain of several): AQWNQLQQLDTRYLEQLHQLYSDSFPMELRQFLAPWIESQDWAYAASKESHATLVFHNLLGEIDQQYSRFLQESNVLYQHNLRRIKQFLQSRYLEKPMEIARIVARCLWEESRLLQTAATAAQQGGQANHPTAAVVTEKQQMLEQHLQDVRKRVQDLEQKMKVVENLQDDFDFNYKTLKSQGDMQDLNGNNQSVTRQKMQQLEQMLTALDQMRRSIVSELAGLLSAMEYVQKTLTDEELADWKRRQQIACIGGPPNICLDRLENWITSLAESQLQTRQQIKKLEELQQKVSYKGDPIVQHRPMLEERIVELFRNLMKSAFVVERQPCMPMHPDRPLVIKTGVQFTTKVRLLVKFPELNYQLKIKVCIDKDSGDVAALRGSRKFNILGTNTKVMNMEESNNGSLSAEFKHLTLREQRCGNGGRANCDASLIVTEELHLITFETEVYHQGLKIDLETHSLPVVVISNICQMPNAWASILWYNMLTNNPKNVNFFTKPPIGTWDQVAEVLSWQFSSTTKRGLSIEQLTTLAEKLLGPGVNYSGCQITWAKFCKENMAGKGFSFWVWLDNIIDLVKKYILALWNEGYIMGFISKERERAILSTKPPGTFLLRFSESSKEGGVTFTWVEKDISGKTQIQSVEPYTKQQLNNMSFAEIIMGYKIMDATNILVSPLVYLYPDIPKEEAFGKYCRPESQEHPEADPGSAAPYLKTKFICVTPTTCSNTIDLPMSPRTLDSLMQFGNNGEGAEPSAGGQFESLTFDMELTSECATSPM
molecule,measurement,setting,value
"CCOc1cc(C=C2C(=O)c3ccccc3C2=O)cc(Cl)c1OCc1cccc(C(=O)O)c1 [Cpd3-2, 3-({2-chloro-4-[(1,3-dioxo-1,3-dihydro-2H-inden-2-ylidene)methyl]-6-ethoxyphenoxy}methyl)benzoic acid]",induction of apoptosis of any of the breast cancer cell lines tested,breast cancer cell lines,neither Cpd3-2 nor Cpd3-7 induced apoptosis
same,effect on IFN-γ-stimulated Stat1 phosphorylation,Stat1,did not
"CCN1C(=O)C(=Cc2ccc(-c3cc(C(=O)O)ccc3Cl)o2)C(=O)N(CC)C1=S [Cpd30-12, 4-chloro-3-{5-[(1,3-diethyl-4,6-dioxo-2-thioxotetrahydro-5(2H)-pyrimidinylidene)methyl]-2-furyl}benzoic acid]",effect on IFN-γ-stimulated Stat1 phosphorylation,Stat1,blocked Stat1 phosphorylation
"CCN1C(=O)C(=Cc2ccc(-c3ccc(C(=O)O)cc3)o2)SC1=S [Cpd30, 4{5-[(3-ethyl-4-oxo-2-thioxo-1,3-thiazolidin-5-ylidene)methyl]-2-furyl}benzoic acid]",effect on IFN-γ-stimulated Stat1 phosphorylation,Stat1,did not
"O=C(O)c1ccc(C=CC(=O)c2ccc3c(c2)OCCO3)cc1 [Cpd3, 4-[3-(2,3-dihydro-1,4-benzodioxin-6-yl)-3-oxo-1-propen-1-yl]benzoic acid]",effect on Stat3:hSIE band intensity (EMSA),Stat3:hSIE complexes,reduced the amount of hSIE shifted by half or greater
same,effect on IFN-γ-stimulated Stat1 phosphorylation,Stat1,did not
"O=C(O)CSc1cc(NS(=O)(=O)c2ccc(C(=O)O)cc2)c2ccccc2c1O [Cpd188, 4-[({3-[(carboxymethyl)thio]-4-hydroxy-1-naphthyl}amino)sulfonyl]benzoic acid]",reduction in MSFE compared to control,[1],significant reduction in MSFE
same,effect on IFN-γ-stimulated Stat1 phosphorylation,Stat1,did not
O=[N+]([O-])c1ccc2c(c1)S(=O)(=O)C=C2 [Stattic],concentration range inducing apoptosis / Stat3 inhibitory effects,[2],5 to 20 µM
"COC(=O)Cc1c(C)c2ccc(OCc3ccc(C(=O)OC)cc3)c(C)c2oc1=O [Cpd3-7, methyl 4-({[3-(2-methyoxy-2-oxoethyl)-4,8-dimethyl-2-oxo-2H-chromen-7-yl]oxy}methyl)benzoate]",induction of apoptosis of any of the breast cancer cell lines tested,breast cancer cell lines,neither Cpd3-2 nor Cpd3-7 induced apoptosis
same,effect on Stat3:hSIE band intensity (EMSA),Stat3:hSIE complexes,reduced the amount of hSIE shifted by half or greater
same,effect on IFN-γ-stimulated Stat1 phosphorylation,Stat1,did not
"hydrocinnamoyl-Tyr(PO3H2)-Leu-cis-3,4-methanoPro-Gln-NHB",pIC50,Stat3,6.90

# — patent US8779001B2, “Stat3 inhibitors” (The United States of America National Institute of Health …, priority 2008, dated 2014)
